Source: patent publication US20090093469A1, “Phenylaminopropanol Derivatives and Methods of Their Use” (WYETH, priority 2004, published 2009)
Structures can show the parent of a compound that is named as a salt.

biological target: T1, hNET (Homo sapiens, UniProt P23975); experiment: Norepinephrine (NE) uptake assay in MDCK-Net6 cells stably transfected with human hNET; assay type: cell-based; conditions: MDCK-Net6, read-out: % Inhibition @ 1 μM (hNET)
T1 construct: expressed in transfected cells
Experimental: Cells were plated at 300,000/T75 flask and cells were split twice weekly. […] Cells were plated at 250,000 cells/T75 flask and split twice weekly.
On day 1, cells were plated at 3,000 cells/well in growth medium and maintained in a cell incubator (37° C., 5% CO2). On day 2, growth medium was replaced with 200 μl of assay buffer (25 mM HEPES; 120 mM NaCl; 5 mM KCl; 2.5 mM CaCl2; 1.2 mM MgSO4; 2 mg/ml glucose (pH 7.4, 37° C.)) containing 0.2 mg/ml ascorbic acid and 10 μM pargyline. Plates containing cells with 200 μl of assay buffer were equilibrated for 10 minutes at 37° C. prior to addition of compounds. A stock solution of desipramine was prepared in DMSO (10 mM) and delivered to triplicate wells containing cells for a final test concentration of 1 μM. Data from these wells were used to define non-specific NE uptake (minimum NE uptake). Test compounds were prepared in DMSO (10 mM) and diluted in assay buffer according to test range (1 to 10,000 nM). Twenty-five microliters of assay buffer (maximum NE uptake) or test compound were added directly to triplicate wells containing cells in 200 μl of assay buffer. The cells in assay buffer with test compounds were incubated for 20 minutes at 37° C. To initiate the NE uptake, [^3H]NE diluted in assay buffer (120 nM final assay concentration) was delivered in 25 μl aliquots to each well and the plates were incubated for 5 minutes (37° C.). The reaction was terminated by decanting the supernatant from the plate. The plates containing cells were washed twice with 200 μl assay buffer (37° C.) to remove free radioligand. The plates were then inverted, left to dry for 2 minutes, then reinverted and air-dried for an additional 10 minutes. The cells were lysed in 25 μl of 0.25 N NaOH solution (4° C.), placed on a shake table and vigorously shaken for 5 minutes. After cell lysis, 75 μl of scintillation cocktail was added to each well and the plates were sealed with film tape. The plates were returned to the shake table and vigorously shaken for a minimum of 10 minutes to ensure adequate partitioning of organic and aqueous solutions. The plates were counted in a Wallac Microbeta counter (PerkinElmer) to collect the raw cpm data.
For each experiment, a data stream of cpm values collected from the Wallac Microbeta counter was downloaded to a Microsoft Excel statistical application program. Calculations of EC50 values were made using the transformed-both-sides logistic dose response program written by Wyeth Biometrics Department.

T1 sequence (P23975 whole entry): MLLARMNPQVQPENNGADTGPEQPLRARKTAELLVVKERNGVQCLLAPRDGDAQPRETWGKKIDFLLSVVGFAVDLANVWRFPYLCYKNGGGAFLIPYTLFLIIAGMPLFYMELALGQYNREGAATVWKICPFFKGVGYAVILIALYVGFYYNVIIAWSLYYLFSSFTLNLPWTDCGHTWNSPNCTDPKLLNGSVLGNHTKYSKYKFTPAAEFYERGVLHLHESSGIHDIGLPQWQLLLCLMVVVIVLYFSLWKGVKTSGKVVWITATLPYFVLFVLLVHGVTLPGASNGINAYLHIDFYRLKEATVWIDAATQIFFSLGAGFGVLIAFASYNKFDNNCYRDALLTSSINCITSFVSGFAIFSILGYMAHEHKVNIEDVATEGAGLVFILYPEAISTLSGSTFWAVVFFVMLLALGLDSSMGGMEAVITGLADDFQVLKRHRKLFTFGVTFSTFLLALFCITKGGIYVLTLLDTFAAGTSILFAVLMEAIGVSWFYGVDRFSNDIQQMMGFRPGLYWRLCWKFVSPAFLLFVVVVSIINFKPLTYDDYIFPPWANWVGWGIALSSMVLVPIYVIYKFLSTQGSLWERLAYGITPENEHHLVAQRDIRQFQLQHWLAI

| SMILES | inhibition at 1 µM [%] |
| --- | --- |
| CCc1cn([C@@H](c2cccc(F)c2)[C@H](O)CNC)c2ccccc12 [Example 97, ((1S,2R)-1-(3-fluorophenyl)-3-(methylamino)-1-(3-ethyl-1H-indol-1-yl)propan-2-ol hydrochloride] | 99.6 |
| CCn1c(=O)n([C@@H](c2ccccc2)[C@H](O)CNC)c2ccccc21 [Example 200, 1-Ethyl-3-[(1S,2R)-2-hydroxy-3-(methylamino)-1-phenylpropyl]-1,3-dihydro-2H-benzimidazol-2-one hydrochloride] | 97.9 |
| CNCC(O)[C@@H](c1ccccc1)n1ccc2ccccc21 (stereo in doubt) [Example 22, (1R,2S)-1-(1H-indol-1-yl)-3-(methylamino)-1-phenylpropan-2-ol hydrochloride] | 83.8 |
| Cc1cn([C@@H](c2ccccc2)[C@H](O)CN)c2ccccc12 [Example 178, (1S,2R)-3-amino-1-(3-methyl-1H-indol-1-yl)-1-phenylpropan-2-ol hydrochloride] | 69.2 |
| CNC[C@@H](O)[C@H](c1cccc(F)c1)n1ccc2cc(Cl)ccc21 [Example 153, (1S,2R)-1-(5-chloro-1H-indol-1-yl)-1-(3-fluorophenyl)-3-(methylamino)propan-2-ol hydrochloride] | 97.4 |
| CNC[C@@H](O)[C@H](c1ccccc1C)n1ccc2ccccc21 (single isomer, unassigned) [Example 53, hydrochloride] | 57.4 |
| CNC[C@@H](O)[C@H](c1ccccc1)n1c(=O)n(C(C)C)c2cccc(F)c21 [Example 201, 4-Fluoro-3-(2-hydroxy-3-methylamino-1-phenyl-propyl)-1-isopropyl-1,3-dihydro-benzimidazol-2-one hydrochloride] | 98.8 |
| CNC[C@@H](O)[C@H](c1cccc(F)c1)n1ccc2ccc(Cl)cc21 [Example 151, (1S,2R)-1-(6-chloro-1H-indol-1-yl)-1-(3-fluorophenyl)-3-(methylamino)propan-2-ol hydrochloride] | 94.3 |
| CNC[C@@H](O)[C@H](c1cccc(Br)c1)n1ccc2ccccc21 [Example 43, (1S,2R)-1-(3-bromophenyl)-1-(1H-indol-1-yl)-3-(methylamino)propan-2-ol hydrochloride] | 99 |
| CCNC[C@H](O)[C@@H](c1ccccc1)n1ccc2ccccc21 (racemic) [Example 5, (1RS,2SR)-3-(ethylamino)-1-(1H-indol-1-yl)-1-phenylpropan-2-ol hydrochloride] | 58.1 |

same assay, conditions: test compound 1 μM; [3H]NE uptake, MDCK-Net6 cells; read-out: % Inhibition @ 1 μM (hNET)

| inhibition at 1 µM [%] | SMILES |
| --- | --- |
| 67.5 | CNC[C@@H](O)[C@H](c1cccc(F)c1)n1cc(-c2ccc(C(F)(F)F)cc2)c2ccccc21 [Example 173, (1S,2R)-1-(3-fluorophenyl)-3-(methylamino)-1-{3-[4-(trifluoromethyl)phenyl]-1H-indol-1-yl}propan-2-ol hydrochloride] |
| 95.7 | NCC[C@@H](O)[C@H](c1cccc(Cl)c1)n1ccc2ccccc21 [Example 42, (1S,2R)-4-amino-1-(3-chlorophenyl)-1-(1H-indol-1-yl)butan-2-ol hydrochloride] |
| 97.1 | CNC[C@@H](O)[C@H](c1ccccc1)n1ccc2c(Cl)cccc21 [Example 146, (1S,2R)-1-(4-chloro-1H-indol-1-yl)-3-(methylamino)-1-phenylpropan-2-ol hydrochloride] |
| 52.7 | CNC[C@@H](O)[C@H](c1cccc(F)c1)n1ccc2ccncc21 [Example 86, (1S,2R)-3-methylamino-1-(3-fluorophenyl)-1-(1H-pyrrolo[2,3-c]pyridin-1-yl) propan-2-ol dihydrochloride] |
| 99.4 | CNC[C@@H](O)[C@H](c1ccccc1)N1C(=O)C2(CCCCC2)c2ccccc21 [Example 104, 1′-[(1S,2R)-2-hydroxy-3-(methylamino)-1-phenylpropyl]spiro[cyclo-hexane-1,3′-indol]-2′(1′H)-one hydrochloride] |
| 99.6 | CNC[C@@H](O)[C@H](c1cc(F)cc(F)c1)N1CCc2ccccc21 [Example 158, (1S,2R)-1-(3,5-difluorophenyl)-1-(2,3-dihydro-1H-indol-1-yl)-3-(methylamino)propan-2-ol hydrochloride] |
| 96.6 | CNC[C@@H](O)[C@H](c1ccccc1)n1ccc2ccc(F)cc21 [Example 186, (1S,2R)-1-(6-fluoro-1H-indol-1-yl)-3-(methylamino)-1-phenylpropan-2-ol hydrochloride] |
| 70.9 | CNC[C@@H](O)[C@H](c1ccccc1)n1ccc2c(OC)cccc21 [Example 78, (1S,2R)-1-(4-methoxy-1H-indol-1-yl)-3-(methylamino)-1-phenyl propan-2-ol hydrochloride] |
| 95.3 | CNC[C@@H](O)[C@@H](c1cccs1)n1ccc2ccccc21 [Example 102, (1S,2R)-1-(1H-indol-1-yl)-3-(methylamino)-1-(2-thienyl)propan-2-ol hydrochloride] |
| 96.1 | CNC[C@@H](O)[C@H](c1ccccc1)n1cc(C(C)C)c2ccccc21 [Example 154, (1S,2R)-1-(3-isopropyl-1H-indol-1-yl)-3-(methylamino)-1-phenylpropan-2-ol hydrochloride] |
| 100 | CNC[C@@H](O)[C@H](c1cccc(F)c1)n1cc(-c2ccccc2F)c2ccccc21 [Example 114, (1S,2R)-1-(3-fluorophenyl)-1-[3-(2-fluorophenyl)-1H-indol-1-yl]-3-(methylamino)propan-2-ol hydrochloride] |
| 99.8 | CNC[C@@H](O)[C@H](c1cccc(F)c1)n1cc(-c2cccc(F)c2F)c2ccccc21 [Example 211, (1S,2R)-1-[3-(2,3-difluorophenyl)-1H-indol-1-yl]-1-(3-fluorophenyl)-3-(methylamino)propan-2-ol hydrochloride] |
| 37.5 | CCN(C)C[C@H](O)[C@@H](c1ccccc1)n1ccc2ccccc21 (racemic) [Example 25, (1RS,2SR)-3-[ethyl(methyl)amino]-1-(1H-indol-1-yl)-1-phenylpropan-2-ol hydrochloride] |
| 21.4 | CNC[C@H](O)[C@@H](c1ccccc1OC(F)(F)F)n1ccc2ccccc21 [Example 37, (1R,2S)-1-(1H-indol-1-yl)-3-(methylamino)-1-[2-(trifluoromethoxy)phenyl]propan-2-ol hydrochloride] |
| 45.6 | CNC[C@@H](O)[C@H](c1ccccc1)n1ccc2c(C#N)cccc21 [Example 128, 1-[(1S,2R)-2-hydroxy-3-(methylamino)-1-phenylpropyl]-1H-indole-4-carbonitrile hydrochloride] |
| 25.6 | O[C@@H](CNCc1ccccc1)[C@@H](c1ccccc1)n1ccc2ccccc21 (racemic) [Example 7, (1RS,2SR)-3-(benzylamino)-1-(1H-indol-1-yl)-1-phenylpropan-2-ol hydrochloride] |
| 94.9 | CNC[C@@H](O)[C@H](c1ccccc1)n1ccc2c(C)cccc21 [Example 94, (1S,2R)-3-(methylamino)-1-(4-methyl-1H-indol-1-yl)-1-phenylpropan-2-ol hydrochloride] |
| 80.8 | CNC[C@@H](O)[C@H](c1cccc(F)c1)n1ccc2cc(C(F)(F)F)ccc21 [Example 185, (1S,2R)-1-(3-fluorophenyl)-3-(methylamino)-1-[5-(trifluoromethyl)-1H-indol-1-yl]propan-2-ol hydrochloride] |
| 93.8 | NCC[C@@H](O)[C@H](c1cccc(F)c1)n1ccc2ccccc21 [Example 159, (1S,2R)-4-amino-1-(3-fluorophenyl)-1-(1H-indol-1-yl)butan-2-ol hydrochloride] |
| 86.4 | CNC[C@@H](O)[C@H](c1ccccc1)N1C(=O)C(C)(C)c2cc(F)ccc21 [Example 110, 5-fluoro-1-[(1S,2R)-2-hydroxy-3-(methylamino)-1-phenylpropyl]-3,3-dimethyl-1,3-dihydro-2H-indol-2-one hydrochloride] |
| 99.1 | CNC[C@@H](O)[C@H](c1cccc(F)c1)n1cc(-c2ccccc2)c2ccccc21 [Example 98, ((1S,2R)-1-(3-fluorophenyl)-3-(methylamino)-1-(3-phenyl-1H-indol-1-yl)propan-2-ol hydrochloride] |
| 44.9 | CNC[C@@H](O)[C@H](c1ccccc1)n1c(C)cc2ccccc21 (racemic) [Example 71, (1RS,2SR)-3-(methylamino)-1-(2-methyl-1H-indol-1-yl)-1-phenylpropan-2-ol hydrochloride] |
